# Laboratory results as given in paper PMC5909415 (ACS nano, 2015).
# Columns and labels:
# [1] = system: cancer and normal cells; assay: Cell viability assay; assay type: cell-based, human; conditions: 72 h
# [2] = biological target: HSA (Homo sapiens, UniProt P02768); assay: Interaction between avasimibe and HSA; assay type: binding; conditions: avasimibe:HSA molar ratio 16:1, warfarin:HSA 10:1, warfarin fluorescence
# [3] = system: PC3; assay: Cell viability assay; assay type: cell-based; conditions: Homo sapiens, PC-3, 72 h, read-out: IC50 of avasimin (containing avasimibe)
# [4] = Blood bioavailability of avasimibe; assay type: in vivo, mice; conditions: nude, mouse, whole blood, po
# [5] = Tissue distribution of avasimibe in PC3 tumor-bearing mice; assay type: in vivo; conditions: oral avasimibe 15 mg/kg, 2 hr
# [6] = system: PC3 tumors; assay: Anti-tumor effect, PC3 tumor xenograft; conditions: oral avasimibe 15 mg/kg daily by gavage, versus PBS
# HSA, sequence (P02768 25-609): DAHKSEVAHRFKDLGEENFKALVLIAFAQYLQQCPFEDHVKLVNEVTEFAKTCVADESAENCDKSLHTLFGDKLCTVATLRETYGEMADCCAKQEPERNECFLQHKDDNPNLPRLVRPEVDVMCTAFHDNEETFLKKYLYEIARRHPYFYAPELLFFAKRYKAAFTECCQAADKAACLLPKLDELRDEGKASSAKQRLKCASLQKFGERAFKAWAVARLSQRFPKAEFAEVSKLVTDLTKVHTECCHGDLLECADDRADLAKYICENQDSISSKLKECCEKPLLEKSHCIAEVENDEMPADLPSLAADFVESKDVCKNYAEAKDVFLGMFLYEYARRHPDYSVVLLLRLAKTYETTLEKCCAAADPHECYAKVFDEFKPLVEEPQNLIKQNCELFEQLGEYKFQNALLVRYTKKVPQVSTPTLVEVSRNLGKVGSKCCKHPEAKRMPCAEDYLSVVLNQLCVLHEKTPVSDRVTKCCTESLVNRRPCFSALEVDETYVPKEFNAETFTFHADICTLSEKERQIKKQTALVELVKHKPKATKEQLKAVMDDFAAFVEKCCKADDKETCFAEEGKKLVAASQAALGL
SMILES,effect on viability of cancer and normal cells [1],replacement of warfarin at the primary binding site (site I) of HSA [2],IC50 [3] [µM],AUC ([4]; 15 mg/kg) [ng·h/mL],AUC ([4]; 100 mg/kg) [ng·h/mL],avasimibe in the tumor tissue [5],distribution of avasimibe to liver [5],excretion of avasimibe through feces [5],anti-tumor effect in terms of tumor volume [6]
N.N.[Cl][Pt][Cl] [cisplatin],non-selective cytotoxic effects,–,–,–,–,–,–,–,–
CC(C)c1cc(C(C)C)c(CC(=O)NS(=O)(=O)Oc2c(C(C)C)cccc2C(C)C)c(C(C)C)c1 [avasimibe],–,complete replacement of warfarin,8.5,14900,49900,not detectable,most orally administered avasimibe was found in the liver tissue,considerable amount of avasimibe was excreted through the feces,did not exhibit anti-tumor effect
Nc1ccn([C@@H]2O[C@H](CO)[C@@H](O)C2(F)F)c(=O)n1 [gemcitabine],non-selective cytotoxic effects,–,–,–,–,–,–,–,–
